In US20070254877A1, “Indole Derivative and Use for Treatment of Cancer” (Takada Pharmaceutical Company Limited, priority 2004, published 2007):
Where a name gives a salt, the structure may show the parent alone.

What follows are compounds tested against T1, VEGFR2 intracellular domain protein (Homo sapiens, UniProt P35968) (assay: Determination of VEGF Receptor 2 Kinase (VEGFR2) inhibitory activity (AlphaScreen)). Settings: test compound at 1 μM; ATP 25 μM buffer, 25° C., 5 min; read-out: kinase inhibitory rate (%).
T1 construct: made in house; host or cells: SF-21 insect cells infected with recombinant baculovirus BAC-VEGFR2
T1 sequence (P35968 786-1356 limits assumed): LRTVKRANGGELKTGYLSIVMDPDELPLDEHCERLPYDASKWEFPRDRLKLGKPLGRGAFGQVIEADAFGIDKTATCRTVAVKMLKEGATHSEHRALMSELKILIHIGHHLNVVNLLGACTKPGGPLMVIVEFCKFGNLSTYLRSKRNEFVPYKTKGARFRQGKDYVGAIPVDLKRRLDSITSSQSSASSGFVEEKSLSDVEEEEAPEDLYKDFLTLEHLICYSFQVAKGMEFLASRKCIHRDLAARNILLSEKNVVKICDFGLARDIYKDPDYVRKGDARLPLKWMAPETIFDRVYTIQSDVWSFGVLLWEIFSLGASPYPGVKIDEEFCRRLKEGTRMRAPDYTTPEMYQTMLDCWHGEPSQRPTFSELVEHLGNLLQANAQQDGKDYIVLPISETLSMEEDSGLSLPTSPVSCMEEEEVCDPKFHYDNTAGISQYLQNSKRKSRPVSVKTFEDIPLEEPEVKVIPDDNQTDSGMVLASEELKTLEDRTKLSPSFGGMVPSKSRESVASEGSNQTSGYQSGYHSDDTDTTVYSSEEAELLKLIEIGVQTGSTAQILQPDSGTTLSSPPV
Format: biochemical
Procedure: Human VEGF receptor 2 (hereinafter to be abbreviated as VEGFR2) gene was cloned by PCR using cDNA Libraries Human Placenta (Clontech) as a template. The primer used for PCR was prepared from nucleotide sequence (Genbank Accession AF035121) information of VEGFR2 gene by adding a nucleotide sequence encoding flag peptide and a restriction enzyme recognition sequence to a nucleotide sequence (2671-4374 of Genbank Accession AF035121) encoding the VEGFR2 intracellular domain region, so that the protein contains an N-terminal flag tag. The primer nucleotide sequence is shown below.
SF-21 cells were sown at 1×10^6 cells/ml to Sf-900II SFM medium (1 L, Invitrogen) containing 10% fetal bovine serum (trace), 50 mg/L gentamicin (Invitrogen) and 0.1% Pluronic F-68 (Invitrogen), and shaking culture was performed using a 2 L volume Erlenmeyer flask at 27° C., 100 rpm. After culturing for 24 hrs, recombinant baculovirus BAC-VEGFR2 (13.4 mL) was added, and the mixture was further cultured for 3 days. The culture medium was centrifuged at 2,000 rpm for 5 min to give virus-infected cells. The infected cells were washed with a phosphate buffered saline (Invitrogen), centrifuged under the same conditions, and the cells were preserved at −80° C. The cryopreserved cells were thawed in ice, suspended in buffer A (50 mM Tris buffer (30 mL, pH 7.4) containing 20% glycerol, 0.15 M NaCl) supplemented with Complete Protease Inhibitor (Boehringer), and ruptured 3 times with a Polytron homogenizer (Kinematica) at 20,000 rpm for 30 sec. The rupture medium was clarified by centrifugation at 40,000 rpm for 30 min and filtered with a 0.45 μm filter. The filtrate was passed through a column packed with Anti-FLAG M2 Affinity Gel (4 mL, Sigma) at a flow rate of about 0.5 mL/min. The column was washed with buffer A, and eluted with buffer A containing 100 μg/mL of FLAG peptide. The eluate was concentrated with Vivaspin 20 (Vivascience) having a molecular weight cut off of 30K. The buffer of this concentrate was exchanged using NAP™ 25 column (Amersham Bioscience) equilibrated with buffer A. The fractions containing VEGFR2 intracellular domain protein were collected, glycerol was added to the final concentration of 50% and cryopreserved at −80° C.
A test compound dissolved in dimethyl sulfoxide (DMSO) was diluted with a buffer (50 mM Tris-HCl (pH 7.5), 5 mM MgCl2, 5 mM MnCl2, 2 mM dithiothreitol, 0.01% Tween-20). To this compound solution (5 μl) was added a buffer […] containing 50 ng/ml of VEGFR2 intracellular domain protein and 250 ng/ml of biotin labeled polypeptide biotinyl-poly-Glu:Tyr (4:1) (CIS bio International). To the obtained mixture was added a buffer (10 μl) containing ATP (25 μM), the mixture was allowed to react at 25° C. for 5 min and the reaction was quenched with 25 μl of a stop solution (100 mM EDTA disodium salt, 62.5 mM HEPES buffer (pH 7.4), 250 mM NaCl, 0.1% bovine serum albumin, 10 μg/ml AlphaScreen assay streptavidin donor beads (Streptavidin Donor beads: PerkinElmer), 10 μg/ml AlphaScreen assay anti-phosphotyrosine recognition antibody PY-100 binding acceptor beads (Anti-phosphotyrosine (P-Tyr-100) Acceptor beads: PerkinElmer)). The reaction solution was allowed to stand at 25° C. for 16 hrs, and the […] using a plate reader Fusion™ (manufactured by PerkinElmer). The kinase inhibitory rate (%) of the test compound was calculated by the following formula: Inhibitory rate (%)=(1−(count of test compound−blank)÷(control−blank))×100
The count of the solution reacted without addition of the compound was used as a “control”, and the count of the solution without the compound and ATP was used as a “blank”.
Compound O=C(c1ccc2[nH]c3c(c2c1)CCCc1cn[nH]c1-3)N1CCC(N2CCSCC2)CC1 [Example 15, 8-[(4-thiomorpholin-4-ylpiperidin-1-yl)carbonyl]-4,5,6,11-tetrahydro-1H-pyrazolo[4′,3′:6,7]cyclohepta[1,2-b]indole hydrochloride] has an inhibition at 1 µM of no less than 90%. Compound O=C(c1ccc2[nH]c3c(c2c1)CCCc1cn[nH]c1-3)N1CCC(O)(c2ccc(C(F)(F)F)cc2)CC1 [Example 47, 1-(4,5,6,11-tetrahydro-1H-pyrazolo[4′,3′:6,7]cyclohepta[1,2-b]indol-8-ylcarbonyl)-4-[4-(trifluoromethyl)phenyl]piperidin-4-ol] has an inhibition at 1 µM of no less than 80%. O=C(c1ccc2[nH]c3c(c2c1)CCCc1cn[nH]c1-3)N1CCC(O)(c2cccc(Cl)c2)CC1 [Example 45, 4-(3-chlorophenyl)-1-(4,5,6,11-tetrahydro-1H-pyrazolo[4′,3′:6,7]cyclohepta[1,2-b]indol-8-ylcarbonyl)piperidin-4-ol] was tested, and the inhibition at 1 µM was no less than 80%. With O=C(c1ccc2[nH]c3c(c2c1)CCCc1cn[nH]c1-3)N1CCC(O)(c2cccc(F)c2)CC1 [Example 42, 4-(3-fluorophenyl)-1-(4,5,6,11-tetrahydro-1H-pyrazolo[4′,3′:6,7]cyclohepta[1,2-b]indol-8-ylcarbonyl)piperidin-4-ol] the inhibition at 1 µM was no less than 80%. With O=C(c1ccc2[nH]c3c(c2c1)CCCc1cn[nH]c1-3)N1CCC(O)(c2ccccc2C(F)(F)F)CC1 [Example 49, 1-(4,5,6,11-tetrahydro-1H-pyrazolo[4′,3′:6,7]cyclohepta[1,2-b]indol-8-ylcarbonyl)-4-[2-(trifluoromethyl)phenyl]piperidin-4-ol] the inhibition at 1 µM was no less than 80%. With O=C(c1ccc2[nH]c3c(c2c1)CCCc1cn[nH]c1-3)N1CCC(O)(c2ccccc2Cl)CC1 [Example 46, 4-(2-chlorophenyl)-1-(4,5,6,11-tetrahydro-1H-pyrazolo[4′,3′:6,7]cyclohepta[1,2-b]indol-8-ylcarbonyl)piperidin-4-ol] the inhibition at 1 µM was no less than 80%. With O=C(c1ccc2[nH]c3c(c2c1)CCCc1cn[nH]c1-3)N1CCC(NCc2ccccc2)CC1 [Example 17, N-benzyl-1-(4,5,6,11-tetrahydro-1H-pyrazolo[4′,3′:6,7]cyclohepta[1,2-b]indol-8-ylcarbonyl)piperidin-4-amine hydrochloride] the inhibition at 1 µM was no less than 90%. O=C(c1ccc2[nH]c3c(c2c1)CCCc1cn[nH]c1-3)N1CCC(O)(c2ccc(F)cc2)CC1 [Example 41, 4-(4-fluorophenyl)-1-(4,5,6,11-tetrahydro-1H-pyrazolo[4′,3′:6,7]cyclohepta[1,2-b]indol-8-ylcarbonyl)piperidin-4-ol] showed an inhibition at 1 µM of no less than 80%. O=C(c1ccc2[nH]c3c(c2c1)CCCc1cn[nH]c1-3)N1CCC(O)(c2ccc(Cl)cc2)CC1 [Example 44, 4-(4-chlorophenyl)-1-(4,5,6,11-tetrahydro-1H-pyrazolo[4′,3′:6,7]cyclohepta[1,2-b]indol-8-ylcarbonyl)piperidin-4-ol] showed an inhibition at 1 µM of no less than 80%. O=C(c1ccc2[nH]c3c(c2c1)CCCc1cn[nH]c1-3)N1CCC(O)(c2cccc(C(F)(F)F)c2)CC1 [Example 48, 1-(4,5,6,11-tetrahydro-1H-pyrazolo[4′,3′:6,7]cyclohepta[1,2-b]indol-8-ylcarbonyl)-4-[3-(trifluoromethyl)phenyl]piperidin-4-ol] showed an inhibition at 1 µM of no less than 80%. O=C(c1ccc2[nH]c3c(c2c1)CCCc1cn[nH]c1-3)N1CCC(N2CCCCCC2)CC1 [Example 11, 8-[(4-azepan-1-ylpiperidin-1-yl)carbonyl]-4,5,6,11-tetrahydro-1H-pyrazolo[4′,3′:6,7]cyclohepta[1,2-b]indole hydrochloride] gave an inhibition at 1 µM of no less than 90%. O=C(c1ccc2[nH]c3c(c2c1)CCCc1cn[nH]c1-3)N1CCC(O)(c2ccccc2F)CC1 [Example 43, 4-(2-fluorophenyl)-1-(4,5,6,11-tetrahydro-1H-pyrazolo[4′,3′:6,7]cyclohepta[1,2-b]indol-8-ylcarbonyl)piperidin-4-ol] showed an inhibition at 1 µM of no less than 80%.
